Experiments:
human Neurons = assay: Dunn chamber migration assay (chemotaxis of immature neurons); type: cell-based; details: BIBF1120 (2 μg), 6 h recording; for chemotactic response of human neurons towards FGF2 gradient in presence of inhibitor: FGF2 200 ng/ml in outer well; for chemotactic response of human neurons towards VEGF gradient in presence of inhibitor: VEGF 200 ng/ml in outer well
Procedure: FIG. 7A Dunn chamber migration assay. Schematic representation of a direct-viewing Dunn chemotaxis chamber showing the position of the inner well, the bridge, the outer well and the overlying coverslip (a) (Zicha et al., 1991 1998, Zhang et al., 2003). Adopted from Hawksley. Calculation of the forward migration index (FMI) during a 6 h recording period. FMI values can be either positive or negative, depending on the direction in which the cell is migrating (b).
FIG. 7B Directionality analysis of cell movement using scatter plots of cell displacement (c-i). The diagrams orientate such that the position of the outer well of the chamber are vertical (y direction). Each point represents the final position of a cell at the end of the recording period of 6-h; the starting point of migration is fixed at the intersection of the two axes. As control migration of human neurons was monitored in medium only (c). For assessing chemokinesis, equal amounts of FGF2 (d) or VEGF (e) were added to both the outer and the inner wells of the chamber. Chemotaxis was tested by placing FGF2 (f) or VEGF (g) in the outer well only. Migration of human neurons treated with BFBF1120 was monitored towards a FGF2 (h) and VEGF (i) gradient.
Chemotaxis of immature neurons was directly viewed and recorded in stable concentration gradients of FGF2 (200 ng/ml) or VEGF (200 ng/ml), respectively, with or without the addition of BIBF1120 ([…]) using a Dunn chemotaxis chamber (Allen et al., 1998 1998, Zhang et al., 2003). This device is made from a Helber bacteria counting chamber by grinding a circular well in the central platform to leave a 1 mm-wide annular bridge between the inner and the outer well. Chemoattractants added to the outer well of the chamber will diffuse across the bridge to the inner well and form a linear steady gradient within ˜30 min after loading the chamber (Zicha et al., 1991; Webb et al., 1996). To study chemotaxis, the outer well of the Dunn chamber can be filled with medium containing a chemoattractant, whereas the concentric inner well is filled with medium only. Coverslips carrying the cultured cells are inverted and placed onto the chamber. Cell locomotion is recorded through the annular bridge between the concentric inner and outer well. For assessing chemokinesis, the outer and inner wells are filled with equal concentrations of the chemoattractant. A period of 6 h was chosen to assess cell migration.
To determine the efficiency of forward migration during the 6 h recording period, the FMI was calculated as the ratio of forward progress to the total path length (Foxman et al., 1999; Zhang et al.).

lt-hESNSC [1] = assay: BrdU cell proliferation assay; type: cell-based, human; details: BIBF1120 2 μg/ml for 20 h; BrdU 2.5 h
Procedure: (§1) FIG. 9 The effect of BIBF1120 on lt-hESNSC proliferation and differentiation. The proliferative effect was measured in a BrdU proliferation assay of lt-hESNSC, either with or without BIBF1120 (a). Bars represent the percentage of BrdU positive cells, cultured for 20 hours in NSC-medium or in NSC-medium with BIBF1120 (2 μg/ml) and treated for 2.5 h with BrdU. The neurogenic effect of BIBF1120 on lt-hESNSC was studied (b). Bars represent the percentage of βIII tubulin-positive neurons in lt-hESNSC cultured for 10 days in neuronal generation medium or in neuronal generation medium with BIBF1120 (2 μg/ml).
For BrdU staining (FIG. 6A) 0.5% Triton X-100 in PBS was used for permeabilizing the cells. After washing, cells were incubated with 2 M HCl for 10 minutes, washed in PBS, equilibrated using 0.1 M borate buffer, washed again in PBS, followed by an incubation with the primary antibody diluted in blocking solution at room temperature over night. Staining with the secondary antibody was performed as described.
5′-bromo-T-deoxyuridine (BrdU) is a thymidine analog that incorporates into dividing cells during DNA synthesis. To determine whether BIBF1120 has an influence on the proliferation rate of lt-hESNSC, cells were cultured under neural proliferation medium with or without BIBF1120 (2 μg/ml) for 20 h. BrdU was added to the culture medium for 2.5 h. […]

lt-hESNSC [2] = assay: Neurogenesis assay (differentiation in neuronal generation medium); type: cell-based, human; details: 10 days in neuronal generation medium with BIBF1120 (2 μg/ml)
Procedure: as §1
Differentiation was studied by a neurogenesis assay. In this assay lt-hESNSC were cultured for 10 days in neuronal generation medium or in neuronal generation medium with BIBF1120 (2 μg/ml), fixed and stained for […].

[3] = test system: lt-hESNSC mixed with immature neurons on hippocampal rat slice cultures; assay: Transplantation onto rat hippocampal slice cultures (migration of human neurons from mixed grafts); type: cell-based; details: 2 μg/ml BIBF1120, day 7
Procedure: Using a vibroslicer, 400 μm horizontal sections were generated from the hippocampus of 9-10 day-old Wistar rats. The slices included the dentate gyrus and the entorhinal and temporal cortex (Scheffler et al., 2003; Opitz et al., 2007). They were transferred onto a polyester membrane and cultivated at 35° C., 5% CO2 and saturated air humidity in an initial culture medium containing 25% normal horse serum, which was gradually replaced after 3-5 days by chemically defined, serum-free culture medium based on DMEM/F12, N2 supplement and B27 supplement. Medium was changed every other day and 5-7 days after explantation a cell suspension of 50 000 cells in a 1 μl volume was spotted onto the entorhinal cortex of the slice using an injection device.
For immunohistochemical analysis of slice cultures (FIG. 4), cultures were fixed in 4% paraformaldehyde for 4 hours and subsequently washed several times with PBS. Slices were permeabilized/blocked with 0.1% Triton X-100+10% FCS for 6 hours at 25° C. Incubation with primary antibody was for 16 hours at room temperature, followed by washing steps with PBS for 5 hours. Incubation with the secondary antibodies was for 2 hours at room temperature.
To further investigate whether endostatin can also interfere with the chemoattractive effect of neural stem/progenitor cells on immature neurons in a context closer to an in vivo situation, hippocampal rat slice culture experiments were performed. HES-NSC70+N30 were pre-incubated for 30 minutes in 30 μl Cytocon™-Buffer II with either 2 μl stock solution endostatin (n=9) or with 2 μl of the solvent of endostatin (citric-phosphate buffer) as control (n=9), and then deposited on the entorhinal cortex of hippocampal slice cultures. Cultures of pure human neurons were transplanted as positive control (n=9). The slices were further cultured for 18 days after deposition of the cells. 1 μl/ml endostatin stock solution was continuously applied every day to the slice media.
To further investigate whether BIBF1120 can also interfere with the chemoattractive effect of neural stem/progenitor cells on immature neurons, hippocampal rat slice culture experiments were performed. Lt-hESNSC mixed with purified DCX-EGFP positive neurons (30.0000 lt-hESNSC mixed with 100.000 purified neurons per μl) were pre-incubated for 30 min. in Cytocon™-Buffer II with or without 2 μg/ml BIBF1120, respectively, and then deposited on the entorhinal cortex (EC) of hippocampal slice cultures. The slices were further cultured for 7 days after deposition of the cells. 2 μg/ml BIBF1120 was continuously applied every day to the slice media.

[4] = test system: mitogen-activated protein kinase (MAPK) and Akt signalling pathways; details: after 1-hour treatment; cell culture; cited from earlier work

## COC(=O)c1ccc2c(c1)NC(=O)/C2=C(\Nc1ccc(N(C)C(=O)CN2CCN(C)CC2)cc1)c1ccccc1 [BIBF1120, 3-Z-[1-(4-(N-((4-methyl-piperazin-1-yl)-methylcarbonyl)-N-methyl-amino)-anilino)-1-phenyl-methylene]-6-methoxycarbonyl-2-indolinone]
Human Neurons
  chemotactic response of human neurons towards FGF2 gradient in presence of inhibitor: lost their chemotactic response
  chemotactic response of human neurons towards VEGF gradient in presence of inhibitor: lost their chemotactic response
Human Neurons; listed as BFBF1120
  chemotactic response of human neurons towards FGF2 gradient in presence of inhibitor: loose this chemotactic response
  chemotactic response of human neurons towards VEGF gradient in presence of inhibitor: loose this chemotactic response
lt-hESNSC [1]
  proliferation rate (BrdU positive cells) vs untreated control: no significant difference
lt-hESNSC [2]
  differentiation (βIII tubulin-positive neurons): not significantly influenced
[3]
  migration along the z-axis: easily migrated throughout the entire slice tissue
  total number of human neurons within 10 μm thick optical plane, bottom of the slice: 14±7.8
  total number of human neurons within 10 μm thick optical plane, middle of the slice: 14.6±6.1
[3]; xy-axis
  number of neurons migrated beyond a 250 μm perimeter around the deposition site, increase vs control: two-fold increase
[3]; lt-hESNSC mixed with purified neurons
  migration horizontally over the slice compared to control population: enhanced migration and integration capacity
[4]
  duration of sustained pathway inhibition: up to 32 hours

— patent US9844572B2, “Promotion of neuronal integration in neural stem cell grafts” (Life & Brain GmbH, priority 2009, dated 2017)
